The values that follow come from patent publication US12402621B2, “Method for increasing longevity and/or bud opening of cut flowers” (LETAVIS AB, priority 2019, dated 2025).

What all share (assay type): in vivo
Experiment [1] relates to roses of the type Furiosa. Kind of experiment: Effect of oxytocin on the florescence of cut roses of the type Furiosa (appearance scores after pretreatment in cold-storage room). The procedure:
The stalks of newly delivered roses of the type Furiosa were cut (1 cm from the lowest part of the stem) and thereafter the roses were placed in buckets containing water with different doses of oxytocin (0, 0.1, 1 and 10 μM) and kept in a cold-storage room for […]. Nine roses were included in each treatment group.
Thereafter, the roses were moved to a home like setting with normal room temperature. The stalks of the roses were again cut and the roses were placed in individual vases filled with tap water.
The assessment criteria were: degree of bud opening (i.e. degree of flower turn-out), degree of drooping (i.e. how bent the stalk was, freshness of the petals, freshness of the sepals and freshness of the stem leaves. Each assessment criterion was given a score from 1-5 according to the description. An average score based on all the assessment criteria was also calculated.

Experiment [2] has as its system roses of the type Belle Rose. Kind of experiment: Effect of oxytocin on the survival of cut roses of the type Belle Rose (appearance scores after pretreatment in cold-storage room). The following applies: oxytocin 1, 5 and 10 μM in the presence of Chrysal, in particular 10 μM; cold-storage room 3 days, then tap water at room temperature; FIGS. 5 and 6. The procedure: The stalks of newly delivered roses of the type Belle Rose were cut (1 cm from the lowest part of the stem) and thereafter the roses were placed in buckets containing tap water or tap water with different doses of oxytocin (0, 1, 5 and 10 μM in the presence of Chrysal) and kept in a cold-storage room for 3 days. Eight to nine roses were included in each bucket.
Thereafter, the roses were moved to a home like setting with normal room temperature. The stalks of the roses were again cut and the rose bouquets were placed in vases filled with tap water.
The appearance of the roses was assessed at 0, 2, 4, 7 10 and 13 days after being placed in the home like setting according to the criteria shown in Table 2 (see Example 1). The assessment criteria were: degree of bud opening (i.e. degree of flower turn-out), degree of drooping (i.e. how bent the stalk was, freshness of the petals, freshness of the sepals and freshness of the stem leaves. Each assessment criterion was given a score from 1-5 according to the description. An average score based on all the assessment criteria was also calculated.

Experiment [3] concerns roses of the type Upper class. Kind of experiment: Effect of oxytocin on the survival of cut roses of the type Upper class (appearance scores after pretreatment in cold-storage room). The settings on record: oxytocin 1-10 μmolar in water, cold-storage room 18 days, then tap water at room temperature; assessed at 4, 9, 15 and 20 days; FIG. 2. The text has this:
The stalks of newly delivered roses of the type Upper class were cut (1 cm from the lowest part of the stem) and thereafter the roses were placed in buckets containing water with different doses of oxytocin (For doses see Table 1 and kept in a cold-storage room for 18 days. Four roses were included in each treatment group.
Thereafter, the roses were moved to a home-like setting with normal room temperature. The stalk of the roses was cut again and the roses were placed in individual vases filled with tap water.
The assessment criteria were: degree of bud opening (i.e. degree of flower turn-out), degree of drooping (i.e. how bent the stalk was, freshness of the petals, freshness of the sepals and freshness of stem leaves. Each assessment criterion was given a score from 1-5 according to the description. An average score based on all the assessment criteria was also calculated.

With oxytocin, the “duration of time during which the roses kept fresh and attractive (days with bud opening score above 1.5)” value in experiment [1] (in particular with 10 μM oxytocin, after being put in tap water in home-like setting, FIG. 4) is “increased in response to oxytocin”. Further, the “degree of bud opening” value in experiment [1] (oxytocin 0.1, 1 and 10 μM, in particular 10 μM, pretreatment in cold-storage room, then tap water at room temperature, FIG. 3) is recorded as “increased the degree of bud opening”. The “effect on degree of bud opening by length of oxytocin treatment” value in experiment [1] (treatment with oxytocin for 3 days versus 6 hours in cold-storage room, FIG. 3) is “more pronounced after treatment with oxytocin for 3 days than for 6 hours”. In addition, in experiment [2], the “duration of time during which the roses kept fresh and attractive” value is given as “increased in response to oxytocin”; the level of florescence result was “increased the level of florescence”. In experiment [3], the “individual assessments (bud opening, drooping, freshness of petals, sepals, stem leaves)” value is “in a positive direction”.
